Key:
[1] = system: subjects with manifest HD, chorea; experiment: ARC-HD open-label, single-arm study (Rollover and Switch cohorts); format: in vivo, human
Source text: In a second clinical trial, a method for converting patients with adequate control of chorea with tetrabenazine to deutetrabenazine treatment was implemented. Alternatives for Reducing Chorea in Huntington Disease (ARC-HD) was an open-label, single-arm study in which subjects with manifest HD who were receiving FDA-approved doses of tetrabenazine for the treatment of chorea or had successfully completed First-HD were invited to participate. The study thus comprised two cohorts. […] Other key inclusion criteria for the study included: diagnosed with manifest HD, as indicated by characteristic motor examination features; a documented expanded cytosine adenine guanine (CAG) repeat (≥37) and Total Functional Capacity (TFC) score ≥5 at or before Screening; able to ambulate without assistance for at least 20 yards ([…] devices such as walker or cane permitted); and subject has a reliable caregiver who interacts with the subject on a daily basis, oversees study drug administration, assures attendance at study visits, and participates in evaluations, as required. Key exclusion criteria included serious untreated or undertreated psychiatric illness (e.g., depression) at Screening or Baseline; concomitant dopamine receptor antagonists, dopamine agonists, levodopa, reserpine, N-methyl-D-aspartate receptor antagonists, or monoamine oxidase inhibitors within 30 days of Screening or Baseline; and score ≥11 on the depression subscale of the Hospital Anxiety and Depression Scale (HADS), a score of ≥11 on the Swallowing Disturbance Questionnaire (SDQ), or a Unified Parkinson's Disease Rating Scale (UPDRS) dysarthria score of ≥3 at Screening or Baseline. The guidance for investigators on conversion of subjects from stable doses of tetrabenazine to deutetrabenazine in the ARC-HD Switch study was designed to minimize the risk that dose conversion would result in either loss of efficacy or increased adverse events. The conversion method applied was based on modeling and simulation of Phase 1 pharmacokinetic data for deutetrabenazine and tetrabenazine. The objective of the pharmacokinetic analysis was to identify an initial dosing regimen of deutetrabenazine predicted to provide exposure at steady state of the active α and β metabolites that was less than or equal to the predicted AUC at steady state of the active alpha and beta metabolites of tetrabenazine, but with a lower Cmax. Subjects in the Switch cohort completed a full screening evaluation. […] Subjects received existing tetrabenazine regimen through midnight of Day 0 and switched to their assigned deutetrabenazine regimen the next morning (Day 1 of the study). […] The investigator, in consultation with the subject and caregiver, determined when an adequate level of chorea control had been achieved. If a subject experienced a “clinically significant” adverse event attributable to deutetrabenazine, the investigator determined if a dose reduction or suspension was necessary. […] The deutetrabenazine dose for these subjects was titrated from a starting dose of 6 mg per day to a dose that controlled chorea and was well tolerated. For both cohorts, oral tablets at strengths of 6 mg, 9 mg, and 12 mg were used. Doses of 12 mg and higher were administered in two divided doses approximately 10 hours apart. All study treatment regimens were administered orally with meals. The maximum total daily dose of deutetrabenazine was set at 72 mg per day, unless the subject was receiving a strong CYP2D6 inhibitor (e.g., paroxetine), in which case the maximum total daily dose was 36 mg. Subjects attended regular clinic visits to evaluate safety and establish an optimal dose. The investigator, in consultation with the subject and caregiver, determined when an adequate level of chorea control was achieved; the dose of DTBZ could be increased on a weekly basis until there was adequate control of chorea, the subject experienced a protocol defined clinically significant adverse event, or the maximal allowable dose was reached. […]

[2] = system: subjects with chorea associated with HD; conditions: in vivo
Method: First-HD was a randomized, double-blind, placebo-controlled, parallel-group study designed to evaluate the efficacy, safety, and tolerability of deutetrabenazine in subjects with chorea associated with HD. This trial was conducted in the United States and Canada, in collaboration with the Huntington Study Group.
Subjects in First-HD were treated with deutetrabenazine or placebo, starting at 6 mg once per day and titrating weekly to doses of up to 24 mg twice per day (48 mg total maximum daily dose). A total of 90 subjects (45 in each group) were enrolled for evaluation over 13 weeks. Subjects were individually titrated to an optimal dose over up to eight weeks, received maintenance therapy at the optimal dose for four weeks, and were taken off study medication in the final week of the trial.
The primary efficacy endpoint for the study was the change from baseline to maintenance therapy (average of Week 9 and Week 12 values) in the maximal chorea score of the UHDRS. The total maximal score, or TMC, is a clinician-based, quantitative assessment of chorea in seven body regions: face, mouth/tongue, trunk, and the four extremities, with higher scores representing more severe chorea.
The total motor score (TMS) of the UHDRS was prespecified as an additional efficacy endpoint in First-HD. The TMS assesses all the motor features of HD, including items addressing characteristic motor abnormalities other than chorea, such as dystonia, gait, parkinsonism, and postural instability.
The clinical relevance of the change in the TMC score was assessed with four prespecified secondary endpoints that assessed changes from baseline to end of treatment (Week 12). These secondary endpoints were tested in a hierarchical manner: • 1. Treatment success based on patient global impression of change (PGIC); • 2. Treatment success based on clinical global impression of change (CGIC); • 3. Physical Functioning Scale of the SF-36; and • 4. Balance, as assessed by the Berg Balance Test (BBT).
The PGIC and CGIC are single-item questionnaires that ask the subject and investigator, respectively, to assess a subject's overall HD symptoms at specific visits after initiating therapy. Both assessments use a 7-point Likert Scale, with responses ranging from Very Much Worse (−3) to Very Much Improved (+3) to assess overall response to therapy.
Adverse events (AE) and their potential association with treatment were also monitored. Categories of AEs of particular focus included those known to be associated with tetrabenazine use: • Psychiatric disorders: insomnia, depression/agitated depression, abnormal dreams, agitation, anxiety, suicidal ideation, compulsions, impulsive behavior, and sleep disorders; • Nervous system disorders: somnolence, dizziness, akathisia/restlessness, cognitive disorders, drooling, dyskinesia, migraine, headache, loss of consciousness, and syncope (fainting); • General disorders: irritability, fatigue, gait disturbance, chest pain, and hangover; and • Gastrointestinal disorders: diarrhea, dry mouth, constipation, nausea, upper abdominal pain, dyspepsia, frequent bowel movements, gastrointestinal pain, vomiting, dysphagia, flatulence, and salivary hypersecretion.
In addition to AE reporting, rating scales were used to monitor for potential subclinical toxicity due to excessive monoamine depletion. […] These scales applied in First-HD included the Hospital Anxiety and Depression Scale (HADS), the Columbia Suicide Severity Rating Scale (C-SSRS), the Swallowing Disturbance Questionnaire (SDQ), the Unified Parkinson's Disease Rating Scale (dysarthria item) (UPDRS [dysarthria]), the Barnes Akathisia Rating Scale (BARS), and the Epworth Sleepiness Scale (ESS). In addition, the UHDRS, which includes cognitive, behavioral, and functional measures, was performed at key visits.

For [2H]C([2H])([2H])Oc1cc2c(cc1OC([2H])([2H])[2H])C1CC(=O)C(CC(C)C)CN1CC2 (stereo not drawn) [deutetrabenazine, (RR, SS)-1,3,4,6,7,11b-hexahydro-9,10-di(methoxy-d3)-3-(2-methylpropyl)-2H-benzo[a]quinolizin-2-one], which “subjects who experienced AEs” value ([1]; Rollover Cohort) is on record?
Its value is 39 (52.0%) n (%).

And the “subjects who experienced serious AEs” value ([1]; Rollover Cohort)?
Its value is “Three”.

And the “subjects with an AE that led to a dose reduction or dose suspension” value ([1]; Rollover Cohort)?
The value was “Five”.

What about the “TEAE Anxiety” value ([1]; Rollover Cohort (N = 75)) of the same compound?
The value was 3 (4.0) n (%).

What about the “TEAE Constipation” value ([1]; Rollover Cohort (N = 75)) of the same compound?
The value was 3 (4.0) n (%).

What about the “TEAE Depression” value ([1]; Rollover Cohort (N = 75)) of the same compound?
Its value is 8 (10.7) n (%).

What about the “TEAE Diarrhoea” value ([1]; Rollover Cohort (N = 75)) of the same compound?
The value was 4 (5.3) n (%).

What about the “TEAE Disorientation” value ([1]; Rollover Cohort (N = 75)) of the same compound?
Its value is 0 n (%).

What about the “TEAE Dry mouth” value ([1]; Rollover Cohort (N = 75)) of the same compound?
The value was 3 (4.0) n (%).

And the “TEAE Fall” value ([1]; Rollover Cohort (N = 75))?
The value was 10 (13.3) n (%).

What about the “TEAE Fatigue” value ([1]; Rollover Cohort (N = 75)) of the same compound?
Its value is 3 (4.0) n (%).

And the “TEAE Insomnia” value ([1]; Rollover Cohort (N = 75))?
The value was 6 (8.0) n (%).

And the “TEAE Irritability” value ([1]; Rollover Cohort (N = 75))?
Its value is 3 (4.0) n (%).

What about the “TEAE Nasopharyngitis” value ([1]; Rollover Cohort (N = 75)) of the same compound?
Its value is 2 (2.7) n (%).

And the “TEAE Sleep disorder” value ([1]; Rollover Cohort (N = 75))?
Its value is 3 (4.0) n (%).

What about the “TEAE Somnolence” value ([1]; Rollover Cohort (N = 75)) of the same compound?
Its value is 6 (8.0) n (%).

And the “TEAE Vomiting” value ([1]; Rollover Cohort (N = 75))?
The value was 3 (4.0) n (%).

What about the “subjects who experienced AEs” value ([1]; Rollover Cohort, Day 1 through Week 8) of the same compound?
Its value is 45.3%.

And the “TMC mean (SD) decrease from baseline” value ([1]; Rollover Cohort, Week 2)?
Its value is 1.9 (3.0) units.

What about the “Total Maximal Chorea Score, Mean (SD) Change from Baseline” value ([1]; Rollover Cohort, Week 2) of the same compound?
Its value is −1.9 (2.95).

What about the “Total Maximal Chorea Score, Mean (SD) Score” value ([1]; Rollover Cohort, Week 2) of the same compound?
Its value is 10.1 (3.41).

What about the “Total Motor Score, Mean (SD) Change from Baseline” value ([1]; Rollover Cohort, Week 2) of the same compound?
Its value is −3.9 (6.67).

And the “Total Motor Score, Mean (SD) Score” value ([1]; Rollover Cohort, Week 2)?
Its value is 32.4 (15.23).

And the “mean decrease in TMS from baseline” value ([1]; Rollover Cohort, Week 2)?
The value was 3.9 units.

And the “Total Maximal Chorea Score, Mean (SD) Change from Baseline” value ([1]; Rollover Cohort, Week 4)?
Its value is −2.5 (3.21).

And the “Total Maximal Chorea Score, Mean (SD) Score” value ([1]; Rollover Cohort, Week 4)?
The value was 9.8 (3.69).

And the “Total Motor Score, Mean (SD) Change from Baseline” value ([1]; Rollover Cohort, Week 4)?
Its value is −5.9 (7.88).

And the “Total Motor Score, Mean (SD) Score” value ([1]; Rollover Cohort, Week 4)?
The value was 32.1 (16.84).

And the “Total Maximal Chorea Score, Mean (SD) Change from Baseline” value ([1]; Rollover Cohort, Week 8)?
Its value is −4.5 (3.34).

What about the “Total Maximal Chorea Score, Mean (SD) Score” value ([1]; Rollover Cohort, Week 8) of the same compound?
Its value is 7.9 (3.91).

What about the “Total Motor Score, Mean (SD) Change from Baseline” value ([1]; Rollover Cohort, Week 8) of the same compound?
The value was −8.3 (8.58).

And the “Total Motor Score, Mean (SD) Score” value ([1]; Rollover Cohort, Week 8)?
The value was 31.0 (18.07).

And the “subjects who experienced AEs” value ([1]; Rollover Cohort, Week 8 through the visit cut-off date)?
Its value is 43.2%.

And the “TMC mean (SD) decrease from baseline” value ([1]; Rollover Cohort, Week 15)?
The value was 4.5 (5.0) units.

And the “Total Maximal Chorea Score, Mean (SD) Score” value ([1]; Rollover Cohort, Week 15)?
The value was 7.9 (4.05).

What about the “Total Motor Score, Mean (SD) Change from Baseline” value ([1]; Rollover Cohort, Week 15) of the same compound?
Its value is −8.0 (8.41).

And the “Total Motor Score, Mean (SD) Score” value ([1]; Rollover Cohort, Week 15)?
Its value is 30.5 (17.70).

And the “mean decrease in TMS from baseline” value ([1]; Rollover Cohort, Week 15)?
Its value is 8.0 units.

What about the “Total Motor Score, Mean (SD) Change from Baseline” value ([1]; Rollover Cohort, Week 15, listed as DTBZ) of the same compound?
Its value is −8.0.

What about the “subjects with AEs assessed as mild or moderate in intensity” value ([1]; Rollover Cohort, of the 39 subjects with AEs) of the same compound?
The value was 36 (92.3%) n (%).

And the tolerability ([1]; Rollover and Switch Cohorts)?
The tolerability was “generally well tolerated”.

And the “subjects who experienced at least one AE” value ([1]; Switch Cohort)?
The value was 21 (56.8%) n (%).

What about the “subjects who experienced serious AEs” value ([1]; Switch Cohort) of the same compound?
The value was “Two”.

What about the “subjects with an AE that led to a dose reduction or dose suspension” value ([1]; Switch Cohort) of the same compound?
Its value is “four”.

What about the “withdrawal from the study due to an AE” value ([1]; Switch Cohort) of the same compound?
The value was “no subjects withdrew”.

What about the “TEAE Anxiety” value ([1]; Switch Cohort (N = 37)) of the same compound?
The value was 3 (8.1) n (%).

And the “TEAE Constipation” value ([1]; Switch Cohort (N = 37))?
The value was 2 (5.4) n (%).

What about the “TEAE Diarrhoea” value ([1]; Switch Cohort (N = 37)) of the same compound?
Its value is 2 (5.4) n (%).

And the “TEAE Disorientation” value ([1]; Switch Cohort (N = 37))?
Its value is 2 (5.4) n (%).

What about the “TEAE Dry mouth” value ([1]; Switch Cohort (N = 37)) of the same compound?
Its value is 2 (5.4) n (%).

What about the “TEAE Fall” value ([1]; Switch Cohort (N = 37)) of the same compound?
Its value is 3 (8.1) n (%).

And the “TEAE Fatigue” value ([1]; Switch Cohort (N = 37))?
Its value is 1 (2.7) n (%).

What about the “TEAE Insomnia” value ([1]; Switch Cohort (N = 37)) of the same compound?
The value was 1 (2.7) n (%).

And the “TEAE Irritability” value ([1]; Switch Cohort (N = 37))?
Its value is 2 (5.4) n (%).

And the “TEAE Nasopharyngitis” value ([1]; Switch Cohort (N = 37))?
Its value is 2 (5.4) n (%).

And the “TEAE Sleep disorder” value ([1]; Switch Cohort (N = 37))?
The value was 0 n (%).

What about the “TEAE Somnolence” value ([1]; Switch Cohort (N = 37)) of the same compound?
The value was 9 (24.3) n (%).

What about the “TEAE Vomiting” value ([1]; Switch Cohort (N = 37)) of the same compound?
The value was 1 (2.7) n (%).

And the “Total Maximal Chorea Score, Mean (SD) Score” value ([1]; Switch Cohort, Week 1)?
The value was 11.76 (5.11).

And the “Total Motor Score, Mean (SD) Change from Baseline” value ([1]; Switch Cohort, Week 1)?
The value was −2.14 (5.414).

And the “Total Motor Score, Mean (SD) Score” value ([1]; Switch Cohort, Week 1)?
The value was 36.35 (18.043).

What about the “Total Maximal Chorea Score, Mean (SD) Score” value ([1]; Switch Cohort, Week 4) of the same compound?
Its value is 11.86 (5.23).

What about the “Total Motor Score, Mean (SD) Change from Baseline” value ([1]; Switch Cohort, Week 4) of the same compound?
Its value is −1.85 (8.419).

What about the “Total Motor Score, Mean (SD) Score” value ([1]; Switch Cohort, Week 4) of the same compound?
The value was 37.14 (19.516).

And the “Total Maximal Chorea Score, Mean (SD) Change from Baseline” value ([1]; Switch Cohort, Week 8)?
The value was −1.9.

What about the “Total Maximal Chorea Score, Mean (SD) Score” value ([1]; Switch Cohort, Week 8) of the same compound?
The value was 10.10 (5.56).

What about the “Total Motor Score, Mean (SD) Score” value ([1]; Switch Cohort, Week 8) of the same compound?
The value was 34.58 (18.268).

And the “Total Motor Score, Mean (SD) Change from Baseline” value ([1]; Switch Cohort, Week 8, listed as DTBZ)?
Its value is −3.7.

What about the “Total Maximal Chorea Score, Mean (SD) Score” value ([1]; Switch Cohort, Week 15) of the same compound?
Its value is 10.87 (5.99).

And the “Total Motor Score, Mean (SD) Change from Baseline” value ([1]; Switch Cohort, Week 15)?
The value was −1.93 (10.910).

What about the “Total Motor Score, Mean (SD) Score” value ([1]; Switch Cohort, Week 15) of the same compound?
Its value is 35.00 (22.984).

And the “adverse events of chorea or worsening chorea” value ([1]; Switch Cohort, including first week after conversion from tetrabenazine)?
Its value is “no adverse events of chorea or worsening chorea”.

What about the “subjects with AEs assessed as mild to moderate in intensity” value ([1]; Switch Cohort, of the 21 subjects with AEs) of the same compound?
The value was 20 (95.2%) n (%).

And the “mean change from baseline in swallowing disturbance (questionnaire)” value ([1]; patients switched from tetrabenazine to deutetrabenazine (FIG. 7))?
Its value is “trend toward improvement in swallowing”.

And the “overall analysis of the safety scales (UHDRS, SDQ, UPDRS dysarthria, BARS, HADS, ESS, C-SSRS, MoCA)” value ([1]; through Week 28)?
The value was “no increased risk”.

What about the “deaths in the study” value [2] of the same compound?
Its value is “no deaths”.
